Where two headings read alike, the source gives them in different places.
Target: T1, human recombinant LPA2 expressed in CHO cells (Homo sapiens, UniProt Q9HBW0)
T1 construct: expressed in transfected cells; host or cells: CHO (CHO-hLPA2 cell line)
Assay: FLIPR calcium mobilization assay, LPA2 antagonism in CHO-hLPA2 cells
Assay type: cell-based
Protocol: The effectiveness of compounds of the present invention as LPA2 antagonist can be determined at the human recombinant LPA2 expressed in CHO cells, using a FLIPR assay in 384 well format.
CHO-hLPA2 cell lines are cultured in a humidified incubator at 5% CO2 in DMEM/F-12 (1:1) MIXTURE with 2 mM Glutamax, supplemented with 10% of Foetal Bovine Serum, 1 mM Sodium Pyruvate, 11 mM Hepes and 1× Penicillin/Streptomycin. CHO hLPA2 cells are seeded into black walled clear-bottom 384-well plates (#781091, Greiner Bio-One GmbH) at a density of 7,500 cells per well in 50 μl culture media and grown overnight in a 37° C. humidified CO2-incubator. Serial dilutions (1:3 or 1:4, 11 points CRC) of compounds are performed in 100% DMSO at 200× the final concentration. The compounds are diluted 1:50 prior to the experiment with Assay Buffer (20 mM HEPES, 145 mM NaCl, 5 mM KCl, 5.5 mM glucose, 1 mM MgCl2 and 2 mM CaCl2, pH 7.4 containing 0.01% Pluronic F-127) to obtain a solution corresponding to […] the final concentration in the assay (4×, 2% DMSO). The final concentration of DMSO in the assay will be 0.5% in each well. Medium is removed by aspiration and cells are then incubated with 30 μl of a loading solution containing 5 μM of the cytoplasmic Ca2+ indicator Cal-520 AM in Assay Buffer containing 2.5 mM probenecid for 30 min at 37° C. incubator (cell loading). The loaded cell plates are transferred into the FLIPR instrument and calcium responses are monitored during the on-line addition protocols. For testing of compounds, after the cell loading, 10 μl/well of 4× antagonists' solution was added onto the cells. […] Intracellular peak fluorescence values subtracted by baseline fluorescence are exported and analysed to determine IC50 values, respectively. The calcium response is expressed as percentage of the maximal inhibition of the EC80 agonist response.
The raw data (peak height expressed as relative fluorescence units) are normalized and transformed into “percent of inhibition”. Curve fitting and pIC50 (−Log IC50) estimations are carried out using a four-parameter logistic model using XLfit Software.

[1] = CHO-hLPA2 cells, inhibition of LPA EC80 Ca2+ response, 30 min pre-incubation, read-out: LPA2 IC50

T1 sequence (Q9HBW0 whole entry): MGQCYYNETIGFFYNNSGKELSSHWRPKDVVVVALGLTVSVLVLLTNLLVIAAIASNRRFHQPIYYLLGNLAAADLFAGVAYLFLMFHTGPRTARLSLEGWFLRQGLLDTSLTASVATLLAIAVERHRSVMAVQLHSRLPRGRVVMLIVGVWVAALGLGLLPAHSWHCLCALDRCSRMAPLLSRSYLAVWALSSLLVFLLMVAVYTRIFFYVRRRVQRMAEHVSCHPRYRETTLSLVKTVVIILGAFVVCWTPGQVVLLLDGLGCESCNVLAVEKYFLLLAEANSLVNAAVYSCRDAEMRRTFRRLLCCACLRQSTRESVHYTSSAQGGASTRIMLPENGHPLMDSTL

Row | Compound | IC50 [1] [nM] | IC50 (same in vitro assay as Table 2, read-out: IC50 on LPA2 receptor) [nM]
1 | Cc1noc(-c2ccc(S(=O)(=O)N3CCN(C[C@H](C)Nc4ncnc5c(C(F)(F)F)cccc45)CC3)o2)c1C [Example 68, N-[(2S)-1-(4-{[5-(3,4-dimethyl-1,2-oxazol-5-yl)furan-2-yl]sulfonyl}piperazin-1-yl)propan-2-yl]-8-(trifluoromethyl)quinazolin-4-amine] | 10 to 100 | –
2 | C[C@@H](CN1CCN(S(=O)(=O)c2cc(-c3ccno3)cs2)CC1)Nc1ncnc2c(C(F)(F)F)cccc12 [Example 71, N-[(2S)-1-(4-{[4-(1,2-oxazol-5-yl)thiophen-2-yl]sulfonyl}piperazin-1-yl)propan-2-yl]-8-(trifluoromethyl)quinazolin-4-amine] | 10 to 100 | –
3 | Cc1noc(-c2ccc(S(=O)(=O)N3CCN(C[C@H](C)Nc4ncnc5c(CN(C)C)cccc45)CC3)s2)c1C [Example 74, N-[(2S)-1-(4-{[5-(3,4-dimethyl-1,2-oxazol-5-yl)thiophen-2-yl]sulfonyl}piperazin-1-yl)propan-2-yl]-8-[(dimethylamino)methyl]quinazolin-4-amine] | < 1000 | –
4 | COC(=O)N(C)c1nc(C)c(S(=O)(=O)N2CCN(C[C@H](C)Nc3ncnc4c(C(F)(F)F)cccc34)CC2)s1 [Example 89, methyl N-methyl-N-[4-methyl-5-({4-[(2S)-2-{[8-(trifluoromethyl)quinazolin-4-yl]amino}propyl]piperazin-1-yl}sulfonyl)-1,3-thiazol-2-yl]carbamate] | 10 to 100 | –
5 | CC(=O)Nc1ccc(S(=O)(=O)N2CCN(C[C@H](C)Nc3ncnc4c(C(F)(F)F)cccc34)CC2)s1 [Example 90, N-[5-({4-[(2S)-2-{[8-(trifluoromethyl)quinazolin-4-yl]amino}propyl]piperazin-1-yl}sulfonyl)thiophen-2-yl]acetamide] | < 1000 | –
6 | Cc1cc(-c2ccc(S(=O)(=O)N3CCN(C[C@H](C)Nc4ncnc5c(OC(=O)N(C)C)cccc45)CC3)s2)on1 [Example 91, 4-{[(2S)-1-(4-{[5-(3-methyl-1,2-oxazol-5-yl)thiophen-2-yl]sulfonyl}piperazin-1-yl)propan-2-yl]amino}quinazolin-8-yl N,N-dimethylcarbamate] | 10 to 100 | –
7 | Cc1cc(-c2ccc(S(=O)(=O)N3CCN(C[C@H](C)Nc4ncnc5c(N(C)C)cccc45)CC3)s2)on1 [Example 96, N8,N8-dimethyl-N4-[(2S)-1-(4-{[5-(3-methyl-1,2-oxazol-5-yl)thiophen-2-yl]sulfonyl}piperazin-1-yl)propan-2-yl]quinazoline-4,8-diamine] | < 10 | –
8 | COC(=O)Nc1nc(C)c(S(=O)(=O)N2CCN(C[C@H](C)Nc3ncnc4c(Br)cccc34)CC2)s1 [Example 101, methyl N-[5-({4-[(2S)-2-[(8-bromoquinazolin-4-yl)amino]propyl]piperazin-1-yl}sulfonyl)-4-methyl-1,3-thiazol-2-yl]carbamate] | 10 to 100 | –
9 | COC(=O)Nc1nc(C)c(S(=O)(=O)N2CCN(C[C@H](C)Nc3ncnc4ncccc34)CC2)s1 [comparative Example A, Methyl (S)-(4-methyl-5-((4-(2-(pyrido[2,3-d]pyrimidin-4 ylamino)propyl)piperazin-1-yl)sulfonyl)thiazol-2-yl)carbamate, reference compound] | – | > 3000
